Structures can show the parent of a compound that is named as a salt.
System: IL-1β release upon NLRP3 activation in phorbol 12-myristate 13-acetate (PMA)-differentiated THP-1 cells
Test: THP-1 IC50 Determination Assay
Type: cell-based
Settings: Homo sapiens, inhibition of IL-1β release, LPS, nigericin, ELISA
Procedure: The compounds of the present disclosure were tested for their inhibitory activity against IL-1β release upon NLRP3 activation in phorbol 12-myristate 13-acetate (PMA)-differentiated THP-1 cells.
THP-1 cells stored in liquid nitrogen were thawed in a 37° C. water bath. The cells were added into complete RPMI 1640 medium (FBS (56 mL), 100× Penicillin-Streptomycin (5.6 mL) and 0.05 mM 2-Mercaptoethanol in RPMI 1640 Medium (500 mL)) and centrifuged for 5 min at 1000 rpm. The supernatant was discarded and the cells resuspended into new cell culture medium for culturing. Cells were cultured in cell culture medium and passaged every 3-4 days to maintain cell density between 4×10^5 and 1.5×10^6 cells/mL. The cells were diluted to 0.8×10^6 cells/mL and grown in a T150 flask with PMA (final concentration 5 ng/mL). The flask was incubated in a 37° C. incubator with a humidified atmosphere of 5% CO2 for −40 hours. After −40 hours of PMA differentiation, the flask was washed with DPBS. Cells were digested with Trypsin LE for about 5 min at room temperature, and digestion was terminated using complete RPMI 1640 medium. Cells were centrifuged and resuspended (1000 rpm, 3 min). The supernatant was discarded and cells washed with DPBS, centrifuged and resuspended cells (1000 rpm, 5 min). Cells were plated at 30,000 cells/well in a 384-well PP plate and treated with 25 ng/mL LPS solution diluted in serum-free medium (45 μL). The plate was incubated in a 37° C. incubator with a humidified atmosphere of 5% CO2 for 2 hours. Compounds (from 10 mM DMSO solution) were dispensed and serially diluted by 1:3 eight times, with final 0.5% DMSO concentration. NLRP3 inflammasome was activated with nigericin (5 μL), the plate was centrifuged (1000 rpm, 30 s) and incubated in a 37° C. incubator with a humidified atmosphere of […] for 2 hours. 35 μL/well of supernatant was removed and IL-1β levels determined by ELISA assay (Mabtech 3416-1H-20) according to the manufacturer's instructions.

Compound	IC50
CN1CCC(Cn2ccc3cc(-c4ccc(C#N)cc4O)nnc32)CC1 [Compound 68, 3-Hydroxy-4-{7-[(1-methylpiperidin-4-yl)methyl]-7H-pyrrolo[2,3-c]pyridazin-3-yl}benzonitrile]	3000 to 10000 nM
Cc1cc(Cl)cc(O)c1-c1cc2ccn(CC(=O)N(C)[C@@H]3CCN(C)C3)c2nn1 [Compound 62, 2-[3-(4-Chloro-2-hydroxy-6-methylphenyl)-7H-pyrrolo[2,3-c]pyridazin-7-yl]-N-methyl-N-[(3R)-1-methylpyrrolidin-3-yl]acetamide hydrochloride]	300 to 1000 nM
Cc1cc(Cl)cc(O)c1-c1cc2ccn(CC(=O)N(C)[C@H]3CCN(C)C3)c2nn1 [Compound 61, 2-[3-(4-Chloro-2-hydroxy-6-methylphenyl)-7H-pyrrolo[2,3-c]pyridazin-7-yl]-N-methyl-N-[(3S)-1-methylpyrrolidin-3-yl]acetamide hydrochloride]	100 to 300 nM
Cc1cc(Cl)cc(O)c1-c1cc2ccn(CC3CCN(C)C3=O)c2nn1 (centres unmarked) [Compound 66, 3-{[3-(4-Chloro-2-hydroxy-6-methylphenyl)-7H-pyrrolo[2,3-c]pyridazin-7-yl]methyl}-1-methylpyrrolidin-2-one]	300 to 1000 nM
Cc1cc(Cl)cc(O)c1-c1cc2ccn([C@@H]3CCN(C)C3=O)c2nn1 [Compound 69, (3R)-3-[3-(4-Chloro-2-hydroxy-6-methylphenyl)-7H-pyrrolo[2,3-c]pyridazin-7-yl]-1-methylpyrrolidin-2-one]	300 to 1000 nM
Cc1cc(Cl)cc(O)c1-c1cc2ccn(C3CCN(C)CC3)c2nn1 [Compound 67, 5-Chloro-3-methyl-2-[7-(1-methylpiperidin-4-yl)-7H-pyrrolo[2,3-c]pyridazin-3-yl]phenol]	300 to 1000 nM
Cc1cc(Cl)cc(O)c1-c1cc2ccn(CC3CC(=O)N(C)C3)c2nn1 (centres unmarked) [Compound 64, 4-{[3-(4-Chloro-2-hydroxy-6-methylphenyl)-7H-pyrrolo[2,3-c]pyridazin-7-yl]methyl}-1-methylpyrrolidin-2-one]	100 to 300 nM

Results, then the molecule that gave them:

IC50	Compound
30 to 100 nM	Cc1cc(Cl)cc(O)c1-c1cc2ncn(C[C@@H]3CCCN(C)C3)c2nn1 [Compound 79, 5-Chloro-3-methyl-2-(7-{[(3R)-1-methylpiperidin-3-yl]methyl}-7H-imidazo[4,5-c]pyridazin-3-yl)phenol hydrochloride]
100 to 300 nM	Cc1cc(Cl)cc(O)c1-c1cc2ncn(C[C@H]3CCCN(C)C3)c2nn1 [Compound 80, 5-Chloro-3-methyl-2-(7-{[(3S)-1-methylpiperidin-3-yl]methyl}-7H-imidazo[4,5-c]pyridazin-3-yl)phenol hydrochloride]
100 to 300 nM	Cc1cc(Cl)cc(O)c1-c1cc2ccn(CC3CCC(=O)N(C)C3)c2nn1 (centres unmarked) [Compound 70, 5-{[3-(4-Chloro-2-hydroxy-6-methylphenyl)-7H-pyrrolo[2,3-c]pyridazin-7-yl]methyl}-1-methylpiperidin-2-one]
100 to 300 nM	Cc1cc(Cl)cc(O)c1-c1cc2ccn(CC(=O)N(C)[C@@H]3CCOC3)c2nn1 [Compound 60, 2-[3-(4-Chloro-2-hydroxy-6-methylphenyl)-7H-pyrrolo[2,3-c]pyridazin-7-yl]-N-methyl-N-[(3R)-oxolan-3-yl]acetamide]
